According to patent US20220033407A1, “N-(pyridin-2-ylsulfonyl)cyclopropanecarboxamide Derivatives and their Use in the Treatment of Disease” (NOVARTIS AG, priority 2018, published 2022):

Molecular target: T1, delF508-CFTR-HRP (Homo sapiens, UniProt P13569, DEL508-508)
T1 construct: expressed in transfected cells
Assay: Measurement of delF508-CFTR-HRP surface expression in CFBE41o- cells (HRP luminescence);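 for DelF508-CFTR-HRP Amax %: percent efficacy relative to a reference CFTR corrector compound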
Type: cell-based
Conditions: for Emax: CFBE41o-, read-out: DelF508-CFTR-HRP Amax %; for EC50: mean of at least two replicates
Source text: Measurement of delF508-CFTR-HRP Surface Expression in CFBE41o-Cells
This assay quantifies the cell surface expressions of the mutant CFTR channel using an extracellular HRP tag.
A cellular assay was developed to measure surface expression of horseradish peroxidase (HRP) tagged delF508-CFTR in the human bronchial epithelial immortalized CFBE41o-cell line (Phuan, P. W., et al, (2014) Molecular Pharmacology 86:42-51). Specifically, the HRP sequence was inserted into the fourth extracellular loop of delF508-CFTR and stably expressed in CFBE41o-cells. Cells were seeded in 384 well plate at a density of 5000 cells/well and incubated at 37° C. for 12 to 24 hours in medium (Gibco MEM #11095, 10% FBS, 10 mM HEPES, […], 200 μg/mL G418, 3 μg/mL Puromycin). The delF508-CFTR-HRP expression was induced with 500 ng/mL doxycycline (Sigma D-9891, dissolved in H2O and sterile filtered) in medium and the cells were incubated at 37° C. for 48 h. Old medium was removed and fresh medium was added containing 500 ng/mL doxycycline and unknown test compound at required test concentration in DMSO, not exceeding 0.5% final DMSO concentration. The highest concentration tested was 10 μM with a 10-point concentration response curve using a 3-fold dilution. After addition of compounds, the cells were incubated for 24 h at 37° C. On the final day, cells were washed four times in PBS containing 1 mM MgCl2 and 0.1 mM CaCl2. HRP-Substrate (SuperSignal ELISA Pico, Fisher #37069) 20 μl/well was added and the luminescence signal was determined (Viewlux, Perkin Elmer). Light was emitted upon addition of exogenous HRP-Substrate only when delF508-CFTR-HRP reached the cell surface and the HRP tag was accessible to the HRP-Substrate (note: HRP-Substrate cannot cross the lipid bilayer to reach delF508-CFTR-HRP misfolded within the cell).
The median activity for the lowest concentration of the compounds on each assay plate was calculated and this value was used to normalize the signal for each well on the respective plate. Three replicates at each concentrations for every compound were run to determine one EC50. The median value was determined and used to calculate compound activities as described below. Effective half maximal values (EC50) were calculated for each compound by performing logistic regression on measured dose-response data points using the equation: […]
where “Y” is the observed activity, “Bottom” is the lowest observed value, “Top” is the highest observed value, and the “Hill coefficient” gives the largest absolute value of the slope. The curve fitting is carried out by a curve fitting program implemented at GNF using Matlab (Mathworks). The dose response curves also were used to calculate Fold Change (FC) using the equation: […]
Compound efficacy relative to the reference compound 3-(6-(1-(2,2-difluorobenzo[d][1,3]dioxol-5-yl)cyclopropane-1-carboxamido)-3-methylpyridin-2-yl)benzoic acid was determined using the following formula: […]

T1 sequence (P13569 with tags, fused parts or gaps DEL508-508): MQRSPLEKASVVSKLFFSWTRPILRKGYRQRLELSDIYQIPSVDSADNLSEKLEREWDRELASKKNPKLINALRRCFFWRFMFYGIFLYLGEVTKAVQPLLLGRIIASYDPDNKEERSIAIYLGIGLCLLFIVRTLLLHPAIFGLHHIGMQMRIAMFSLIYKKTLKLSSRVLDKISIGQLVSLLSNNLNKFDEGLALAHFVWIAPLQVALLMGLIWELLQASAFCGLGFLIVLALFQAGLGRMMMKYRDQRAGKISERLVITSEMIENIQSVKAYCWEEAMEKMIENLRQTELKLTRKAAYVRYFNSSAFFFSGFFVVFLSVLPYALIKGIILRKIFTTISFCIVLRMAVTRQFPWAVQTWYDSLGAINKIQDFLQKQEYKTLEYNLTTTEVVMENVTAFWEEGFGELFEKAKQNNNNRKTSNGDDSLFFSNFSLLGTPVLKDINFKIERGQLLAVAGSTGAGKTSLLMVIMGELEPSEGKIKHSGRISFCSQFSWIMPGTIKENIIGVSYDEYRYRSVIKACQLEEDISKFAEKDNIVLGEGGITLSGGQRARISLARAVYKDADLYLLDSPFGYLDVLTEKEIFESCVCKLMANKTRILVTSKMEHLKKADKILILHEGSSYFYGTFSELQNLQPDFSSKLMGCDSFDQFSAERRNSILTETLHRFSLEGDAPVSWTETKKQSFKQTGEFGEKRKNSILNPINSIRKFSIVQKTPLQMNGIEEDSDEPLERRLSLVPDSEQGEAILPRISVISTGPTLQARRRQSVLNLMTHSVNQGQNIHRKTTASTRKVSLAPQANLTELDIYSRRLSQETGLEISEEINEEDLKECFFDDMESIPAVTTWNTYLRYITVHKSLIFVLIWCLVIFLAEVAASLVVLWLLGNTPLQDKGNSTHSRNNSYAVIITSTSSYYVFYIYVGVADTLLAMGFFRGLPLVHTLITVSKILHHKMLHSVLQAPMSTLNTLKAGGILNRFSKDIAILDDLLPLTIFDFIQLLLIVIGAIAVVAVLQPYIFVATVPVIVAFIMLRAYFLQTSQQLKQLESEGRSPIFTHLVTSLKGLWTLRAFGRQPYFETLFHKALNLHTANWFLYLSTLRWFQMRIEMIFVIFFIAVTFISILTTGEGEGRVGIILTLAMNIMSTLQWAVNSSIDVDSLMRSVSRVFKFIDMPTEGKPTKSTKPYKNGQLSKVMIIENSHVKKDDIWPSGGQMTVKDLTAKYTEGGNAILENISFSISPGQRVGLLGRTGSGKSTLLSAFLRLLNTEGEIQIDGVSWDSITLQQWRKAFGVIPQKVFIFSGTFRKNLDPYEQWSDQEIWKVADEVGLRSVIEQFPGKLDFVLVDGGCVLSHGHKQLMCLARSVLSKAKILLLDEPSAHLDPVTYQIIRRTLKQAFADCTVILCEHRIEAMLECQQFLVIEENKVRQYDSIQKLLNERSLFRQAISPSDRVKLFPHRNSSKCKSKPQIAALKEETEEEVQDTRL

Row | Compound | Emax [%] | EC50 [µM]
1 | CC1(NC(=O)OC(C)(C)C)CCN(c2cccc(S(=O)(=O)NC(=O)C3(Oc4cc(Cl)ccc4C4CC5(CCC5)C4)CC3)n2)CC1 [Example 7-7, Tert-butyl (1-(6-(N-(1-(5-chloro-2-(spiro[3.3]heptan-2-yl)phenoxy)cyclopropanecarbonyl)sulfamoyl)pyridin-2-yl)-4-methylpiperidin-4-yl)carbamate] | 357 | 0.59
2 | O=C(NS(=O)(=O)c1cccc(N2CC3CCC(C2)O3)n1)C1(Oc2cc(Cl)ccc2C2CC3(CCC3)C2)CC1 [Example 7-16, N-((6-(8-Oxa-3-azabicyclo[3.2.1]octan-3-yl)pyridin-2-yl)sulfonyl)-1-(5-chloro-2-(spiro[3.3]heptan-2-yl)phenoxy)cyclopropane-1-carboxamide] | 381 | 1.24
3 | O=C(NS(=O)(=O)c1cccc(N2CC[C@@H](O)C2)n1)C1(Oc2cc(Cl)ccc2C2CC3(CCC3)C2)CC1 [Example 7-19, (R)-1-(5-Chloro-2-(spiro[3.3]heptan-2-yl)phenoxy)-N-((6-(3-hydroxypyrrolidin-1-yl)pyridin-2-yl)sulfonyl)cyclopropane-1-carboxamide] | 350 | 1.05
4 | O=C(NS(=O)(=O)c1cccc(N2CC[C@H](O)C2)n1)C1(Oc2cc(Cl)ccc2C2CC3(CCC3)C2)CCCC1 [Example 7-20, (S)-1-(5-Chloro-2-(spiro[3.3]heptan-2-yl)phenoxy)-N-((6-(3-hydroxypyrrolidin-1-yl)pyridin-2-yl)sulfonyl)cyclopentane-1-carboxamide] | 280 | 0.54
5 | O=C(NS(=O)(=O)c1cccc(N2CCC(O)(C(F)(F)F)CC2)n1)C1(Oc2cc(Cl)ccc2N2CC3(CCCCC3)C2)CC1 [Example 9-2, 1-(5-chloro-2-(2-azaspiro[3.5]nonan-2-yl)phenoxy)-N-((6-(4-hydroxy-4-(trifluoromethyl)piperidin-1-yl)pyridin-2-yl)sulfonyl)cyclopropanecarboxamide] | 366 | 0.6
6 | O=C(NS(=O)(=O)c1cccc(N2C[C@H]3CC[C@@H](O)[C@H]3C2)n1)C1(Oc2cc(Cl)ccc2N2CC3(CCCCC3)C2)CC1 [Example 9-3, 1-(5-chloro-2-(2-azaspiro[3.5]nonan-2-yl)phenoxy)-N-((6-((3aR,4R,6aS)-4-hydroxyhexahydrocyclopenta[c]pyrrol-2(1H)-yl)pyridin-2-yl)sulfonyl)cyclopropane-1-carboxamide] | 588 | 1.35
7 | CC1(C)CCCN(c2ccc(Cl)cc2OC2(C(=O)NS(=O)(=O)c3cccc(N4CC[C@H](O)C4)n3)CC2)C1 [Example 9-4, (S)-1-(5-chloro-2-(3,3-dimethylpiperidin-1-yl)phenoxy)-N-((6-(3-hydroxypyrrolidin-1-yl)pyridin-2-yl)sulfonyl)cyclopropanecarboxamide] | 835 | 0.75
8 | O=C(NS(=O)(=O)c1cccc(N2CC[C@@H](O)C2)n1)C1(Oc2cc(Cl)ccc2N2CC3(CCCCC3)C2)CC1 [Example 9-6, (R)-1-(5-Chloro-2-(2-azaspiro[3.5]nonan-2-yl)phenoxy)-N-((6-(3-hydroxypyrrolidin-1-yl)pyridin-2-yl)sulfonyl)cyclopropanecarboxamide] | 388 | 0.91
9 | O=C(NS(=O)(=O)c1cccc(N2CC[C@H](O)C2)n1)C1(Oc2cc(Cl)ccc2N2CC3(CCCCO3)C2)CC1 [Example 9-8, (S)-1-(5-Chloro-2-(5-oxa-2-azaspiro[3.5]nonan-2-yl)phenoxy)-N-((6-(3-hydroxypyrrolidin-1-yl)pyridin-2-yl)sulfonyl)cyclopropanecarboxamide] | 204 | 4.04
10 | O=C(NS(=O)(=O)c1cccc(N2CC[C@H](O)C2)n1)C1(Oc2cc(Cl)ccc2N2CCC3(CC2)CC3)CC1 [Example 9-9, (S)-1-(5-Chloro-2-(6-azaspiro[2.5]octan-6-yl)phenoxy)-N-((6-(3-hydroxypyrrolidin-1-yl)pyridin-2-yl)sulfonyl)cyclopropanecarboxamide] |  | 1.65
11 | O=C(NS(=O)(=O)c1cccc(N2CC[C@H](O)C2)n1)C1(Oc2cc(Cl)ccc2N2CCCC3(CCCC3)C2)CC1 [Example 9-15, (S)-1-(5-Chloro-2-(7-azaspiro[4.5]decan-7-yl)phenoxy)-N-((6-(3-hydroxypyrrolidin-1-yl)pyridin-2-yl)sulfonyl)cyclopropanecarboxamide] | 477 | 0.29
12 | CC1CC(C)CN(c2ccc(Cl)cc2OC2(C(=O)NS(=O)(=O)c3cccc(N4CC[C@H](O)C4)n3)CC2)C1 (stereo partly drawn) [Example 9-17, 1-(5-Chloro-2-(3,5-dimethylpiperidin-1-yl)phenoxy)-N-((6-((S)-3-hydroxypyrrolidin-1-yl)pyridin-2-yl)sulfonyl)cyclopropanecarboxamide] | 176 | 1.29
13 | CC1(C)CN(c2ccc(Cl)cc2OC2(C(=O)NS(=O)(=O)c3cccc(N4CC[C@H](O)C4)n3)CC2)C1 [Example 9-21, (S)-1-(5-Chloro-2-(3,3-dimethylazetidin-1-yl)phenoxy)-N-((6-(3-hydroxypyrrolidin-1-yl)pyridin-2-yl)sulfonyl)cyclopropanecarboxamide] | 720 | 2.28
14 | O=C(NS(=O)(=O)c1cccc(N2CC[C@H](O)C2)n1)C1(Oc2cc(Cl)ccc2N2CC3(COC3)C2)CC1 [Example 9-23, (S)-1-(5-Chloro-2-(2-oxa-6-azaspiro[3.3]heptan-6-yl)phenoxy)-N-((6-(3-hydroxypyrrolidin-1-yl)pyridin-2-yl)sulfonyl)cyclopropanecarboxamide] | 13.7 | 10
15 | O=C(NS(=O)(=O)c1cccc(N2CC[C@H](O)C2)n1)C1(Oc2cc(C(F)(F)F)ccc2N2CC3(CCC3)C2)CC1 [Example 9-25, (S)-1-(2-(2-Azaspiro[3.3]heptan-2-yl)-5-(trifluoromethyl)phenoxy)-N-((6-(3-hydroxypyrrolidin-1-yl)pyridin-2-yl)sulfonyl)cyclopropanecarboxamide] | 408 | 1.76
16 | CC1(C)CCN(c2ccc(C(F)(F)F)cc2OC2(C(=O)NS(=O)(=O)c3cccc(N4CC[C@H](O)C4)n3)CC2)CC1 [Example 9-26, (S)-1-(2-(4,4-Dimethylpiperidin-1-yl)-5-(trifluoromethyl)phenoxy)-N-((6-(3-hydroxypyrrolidin-1-yl)pyridin-2-yl)sulfonyl)cyclopropanecarboxamide] | 329 | 1.84
17 | CC1(C)CCCN(c2ccc(Cl)cc2OC2(C(=O)NS(=O)(=O)c3cccc(N4CC[C@](C)(O)C4)n3)CC2)C1 [Example 9-27, (S)-1-(5-Chloro-2-(3,3-dimethylpiperidin-1-yl)phenoxy)-N-((6-(3-hydroxy-3-methylpyrrolidin-1-yl)pyridin-2-yl)sulfonyl)cyclopropanecarboxamide] | 857 | 0.61
18 | C[C@]1(O)CCN(c2cccc(S(=O)(=O)NC(=O)C3(Oc4cc(Cl)ccc4N4CCC5(CC4)CC5)CC3)n2)C1 [Example 9-28, (S)-1-(5-Chloro-2-(6-azaspiro[2.5]octan-6-yl)phenoxy)-N-((6-(3-hydroxy-3-methylpyrrolidin-1-yl)pyridin-2-yl)sulfonyl)cyclopropanecarboxamide] | 755 | 0.55
19 | O=C(NS(=O)(=O)c1cccc(N2CC[C@@H](O)C2)n1)C1(Oc2cc(Cl)ccc2N2CCC3(CC2)CC3)CC1 [Example 9-29, (R)-1-(5-Chloro-2-(6-azaspiro[2.5]octan-6-yl)phenoxy)-N-((6-(3-hydroxypyrrolidin-1-yl)pyridin-2-yl)sulfonyl)cyclopropanecarboxamide] | 691 | 0.95
20 | CC1(C)CCCN(c2ccc(Cl)cc2OC2(C(=O)NS(=O)(=O)c3cccc(N4CC[C@@](C)(O)C4)n3)CC2)C1 [Example 9-30, (R)-1-(5-Chloro-2-(3,3-dimethylpiperidin-1-yl)phenoxy)-N-((6-(3-hydroxy-3-methylpyrrolidin-1-yl)pyridin-2-yl)sulfonyl)cyclopropanecarboxamide] | 590 | 0.59
